In patent US8685992B2, “Histone deacetylase inhibitors based simultaneously on trisubstituted 1H-pyrroles and aromatic and heteroaromatic spacers” (Universidad del País Vasco, priority 2009, dated 2014) one finds IC50 and melting point data, which are given here for 25 compounds.

SMILES strings stand for the structures.

Data set [1] deals with histone deacetylase from rat liver. Kind of data set: Rat liver HDAC assay. The format is biochemical. Particulars: Boc-Lys(Ac)-AMC substrate, 30° C., 2 h, read-out: IC50 (nM) of enzyme activity Rat liver.
In another data set the target is Human HDAC1 (Homo sapiens (Human), UniProt Q13547). The data set can be described thus: HDAC1 fluorogenic peptide deacetylation assay. Particulars: human HDAC1, 50 μM substrate, 30° C., 2 h; read-out: IC50 (nM) of enzyme activity HDAC1. The format is biochemical.
The next data set deals with Human HDAC8 (Homo sapiens (Human), UniProt Q9BY41). Kind of data set: HDAC8 fluorogenic peptide deacetylation assay. The format is biochemical. Particulars: human HDAC8, 50 μM substrate, 30° C., 2 h; read-out: IC50 (nM) of enzyme activity HDAC8.
The target of the next data set is Human HDAC2 (Homo sapiens (Human), UniProt Q92769). The data set can be described thus: HDAC2 fluorogenic peptide deacetylation assay. The format is biochemical. Particulars: human HDAC2, 50 μM substrate, 30° C., 2 h; read-out: IC50 (nM) of enzyme activity HDAC2.
For data set [2], the system named is Nuclear Extract from HeLa Cells. Kind of data set: HeLa Nuclear Extract HDAC assay. The format is biochemical, human. Particulars: 50 μM substrate, 30° C., 2 h, read-out: IC50 (nM) of enzyme activity HeLa.
The next data set deals with Human HDAC3/NcoR2 (Homo sapiens (Human), UniProt O15379). The data set can be described thus: HDAC3 fluorogenic peptide deacetylation assay. The format is biochemical. Particulars: human HDAC3/NcoR2, 50 μM substrate, 30° C., 2 h; read-out: IC50 (nM) of enzyme activity HDAC3.
A further data set concerns the target Human HDAC6 (Homo sapiens (Human), UniProt Q9UBN7). The data set can be described thus: HDAC6 fluorogenic peptide deacetylation assay. The format is biochemical. The note with it: human HDAC6, 50 μM substrate, 30° C., 2 h; read-out: IC50 (nM) of enzyme activity HDAC6.

For orientation: IC50 means the midpoint of a concentration-inhibition curve. Usually melting point stands for the temperature of the solid-liquid transition.

Chain of Human HDAC3/NcoR2 (O15379 whole entry): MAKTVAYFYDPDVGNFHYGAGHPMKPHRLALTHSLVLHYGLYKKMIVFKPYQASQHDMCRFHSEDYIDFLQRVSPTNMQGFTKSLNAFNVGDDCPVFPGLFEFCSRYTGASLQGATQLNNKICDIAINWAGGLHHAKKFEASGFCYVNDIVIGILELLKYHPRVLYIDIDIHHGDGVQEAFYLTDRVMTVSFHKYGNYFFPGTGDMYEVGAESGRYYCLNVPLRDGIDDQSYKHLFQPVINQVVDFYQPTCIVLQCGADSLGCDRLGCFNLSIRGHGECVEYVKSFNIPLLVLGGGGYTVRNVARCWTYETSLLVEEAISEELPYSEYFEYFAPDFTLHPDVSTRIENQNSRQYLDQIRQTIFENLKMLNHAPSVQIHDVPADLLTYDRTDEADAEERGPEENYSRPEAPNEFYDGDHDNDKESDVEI
Chain of Human HDAC3/NcoR2 (Q9Y618 395-489 partner): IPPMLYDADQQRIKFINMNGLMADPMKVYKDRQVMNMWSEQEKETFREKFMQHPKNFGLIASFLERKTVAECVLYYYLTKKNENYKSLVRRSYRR
Chain of Human HDAC6 (Q9UBN7 whole entry): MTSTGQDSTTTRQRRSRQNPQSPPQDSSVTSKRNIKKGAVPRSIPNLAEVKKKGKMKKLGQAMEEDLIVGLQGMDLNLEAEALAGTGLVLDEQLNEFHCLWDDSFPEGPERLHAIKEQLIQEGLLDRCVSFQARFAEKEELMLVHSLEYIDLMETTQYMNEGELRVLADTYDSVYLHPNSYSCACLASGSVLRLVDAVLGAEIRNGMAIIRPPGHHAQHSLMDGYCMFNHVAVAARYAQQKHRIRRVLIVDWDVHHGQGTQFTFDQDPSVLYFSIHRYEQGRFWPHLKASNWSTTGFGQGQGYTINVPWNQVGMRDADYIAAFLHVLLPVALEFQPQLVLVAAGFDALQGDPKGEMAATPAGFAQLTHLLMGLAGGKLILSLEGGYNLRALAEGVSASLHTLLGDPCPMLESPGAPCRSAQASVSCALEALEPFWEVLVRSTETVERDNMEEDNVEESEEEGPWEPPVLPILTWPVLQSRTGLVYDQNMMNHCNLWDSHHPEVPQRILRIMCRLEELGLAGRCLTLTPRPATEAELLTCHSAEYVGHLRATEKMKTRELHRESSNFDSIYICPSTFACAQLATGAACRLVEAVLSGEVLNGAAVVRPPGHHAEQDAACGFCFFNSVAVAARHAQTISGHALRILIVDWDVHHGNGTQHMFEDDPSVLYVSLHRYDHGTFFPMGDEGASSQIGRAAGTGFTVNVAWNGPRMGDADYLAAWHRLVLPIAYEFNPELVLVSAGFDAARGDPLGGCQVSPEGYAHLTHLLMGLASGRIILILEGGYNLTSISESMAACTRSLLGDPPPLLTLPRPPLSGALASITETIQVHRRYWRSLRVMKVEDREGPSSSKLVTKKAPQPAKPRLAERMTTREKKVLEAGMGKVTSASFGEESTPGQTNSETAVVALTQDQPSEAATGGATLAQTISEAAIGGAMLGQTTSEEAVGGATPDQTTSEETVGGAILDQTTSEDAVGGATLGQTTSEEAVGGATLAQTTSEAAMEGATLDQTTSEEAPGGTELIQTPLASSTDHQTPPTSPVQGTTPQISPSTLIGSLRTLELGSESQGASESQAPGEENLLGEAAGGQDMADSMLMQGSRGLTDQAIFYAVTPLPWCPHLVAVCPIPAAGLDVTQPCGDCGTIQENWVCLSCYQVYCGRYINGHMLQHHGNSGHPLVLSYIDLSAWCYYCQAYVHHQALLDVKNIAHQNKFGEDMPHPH
Chain of Human HDAC1 (Q13547 whole entry): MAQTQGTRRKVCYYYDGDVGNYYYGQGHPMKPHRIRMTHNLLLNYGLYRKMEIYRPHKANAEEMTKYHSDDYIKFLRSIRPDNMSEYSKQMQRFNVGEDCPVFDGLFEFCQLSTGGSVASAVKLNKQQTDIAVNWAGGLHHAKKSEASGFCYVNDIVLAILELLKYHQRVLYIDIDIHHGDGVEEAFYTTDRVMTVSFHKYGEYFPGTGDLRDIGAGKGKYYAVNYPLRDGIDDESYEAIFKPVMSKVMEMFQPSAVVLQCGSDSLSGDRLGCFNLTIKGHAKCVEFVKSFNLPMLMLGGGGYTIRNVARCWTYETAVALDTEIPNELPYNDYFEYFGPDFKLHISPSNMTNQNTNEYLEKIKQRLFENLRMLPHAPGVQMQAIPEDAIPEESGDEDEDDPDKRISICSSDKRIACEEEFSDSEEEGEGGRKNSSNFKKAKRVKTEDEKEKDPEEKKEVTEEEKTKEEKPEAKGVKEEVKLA
Chain of Human HDAC8 (Q9BY41 whole entry): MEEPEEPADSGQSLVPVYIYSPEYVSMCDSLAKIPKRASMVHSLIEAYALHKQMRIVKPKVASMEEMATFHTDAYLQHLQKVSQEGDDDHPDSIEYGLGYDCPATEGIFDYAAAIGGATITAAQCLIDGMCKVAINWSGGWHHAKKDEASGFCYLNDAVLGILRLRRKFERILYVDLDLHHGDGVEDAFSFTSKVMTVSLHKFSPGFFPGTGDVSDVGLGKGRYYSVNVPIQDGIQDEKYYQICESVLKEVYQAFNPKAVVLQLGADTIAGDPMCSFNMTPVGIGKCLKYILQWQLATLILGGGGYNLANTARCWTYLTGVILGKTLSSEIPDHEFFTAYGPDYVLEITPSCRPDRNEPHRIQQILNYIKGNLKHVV
Chain of Human HDAC2 (Q92769 whole entry): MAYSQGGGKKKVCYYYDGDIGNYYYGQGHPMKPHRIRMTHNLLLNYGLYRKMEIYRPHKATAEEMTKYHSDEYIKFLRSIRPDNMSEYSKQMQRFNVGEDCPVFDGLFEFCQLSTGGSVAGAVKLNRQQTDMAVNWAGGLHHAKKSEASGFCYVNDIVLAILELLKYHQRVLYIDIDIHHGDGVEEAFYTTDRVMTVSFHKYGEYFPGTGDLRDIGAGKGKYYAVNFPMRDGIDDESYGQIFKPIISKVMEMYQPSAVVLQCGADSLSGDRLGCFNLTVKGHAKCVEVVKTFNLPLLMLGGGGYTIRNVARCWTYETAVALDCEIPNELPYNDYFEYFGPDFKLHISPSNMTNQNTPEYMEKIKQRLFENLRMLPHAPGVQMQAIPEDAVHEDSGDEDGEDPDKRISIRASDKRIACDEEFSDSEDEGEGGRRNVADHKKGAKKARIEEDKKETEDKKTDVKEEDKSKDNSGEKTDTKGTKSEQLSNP

Regarding `O=C(NO)c1ccc(CNC(=O)c2[nH]c(-c3ccccc3)cc2-c2ccc(Cl)c(Cl)c2)cc1` [Example 44, 3-(3,4-dichlorophenyl)-N-{4-[(hydroxyamino)carbonyl]benzyl}-5-phenyl-1H-pyrrole-2-carboxamide], in data set [1], the IC50 turned out to be 153 nM.
For `O=C(NO)c1ccc(CNC(=O)c2[nH]c(-c3ccccc3)cc2-c2ccc([N+](=O)[O-])cc2)cc1` [Example 43, N-{4-[(hydroxyamino)carbonyl]benzyl}-3-(4-nitrophenyl)-5-phenyl-1H-pyrrole-2-carboxamide], in data set [1], the IC50 worked out at 62 nM.
Consider `O=C(NO)c1ccc(CNC(=O)c2[nH]c(-c3cccnc3)cc2-c2ccc(F)cc2)cc1` [Example 46, 3-(4-fluorophenyl)-N-{4-[(hydroxyamino)carbonyl]benzyl}-5-(3-pyridinyl)-1H-pyrrole-2-carboxamide], for which the IC50 in data set [1] came out at 70 nM.
As for `Nc1ccccc1NC(=O)c1ccc(CNC(=O)c2[nH]c(-c3ccc(O)cc3)cc2-c2ccccc2)cc1` [Example 35, N-(4-{[(2-Aminophenyl)amino)carbonyl]benzyl}-5-(4-hydroxyphenyl)-3-phenyl-1H-pyrrole-2-carboxamide], the IC50 is 108 nM on Human HDAC1; > 5000 nM on Human HDAC8; 433 nM at Human HDAC2; 4280 nM in data set [2]; 806 nM on Human HDAC3/NcoR2; > 5000 nM at Human HDAC6.
Take `O=C(NO)c1ccc(CNC(=O)c2[nH]c(-c3ccccc3)cc2-c2ccc(F)c(F)c2)cc1` [Example 42, 3-(3,4-difluorophenyl)-N-{4-[(hydroxyamino)carbonyl]benzyl}-5-phenyl-1H-pyrrole-2-carboxamide]: the IC50 in data set [1] is 129 nM.
In the case of `O=C(NO)c1ccc(CNC(=O)c2[nH]c(-c3cccs3)cc2-c2ccc(F)cc2)cc1` [Example 31, 3-(4-fluorophenyl)-N-{4-[(hydroxyamino)carbonyl]benzyl}-5-(2-thienyl)-1H-pyrrole-2-carboxamide], the figures for the IC50 in data set [2] and in data set [1] were 58 nM and 49 nM, respectively.
Regarding `Nc1ccccc1NC(=O)c1ccc(CNC(=O)c2[nH]c(-c3ccoc3)cc2-c2ccc(O)cc2)cc1` [Example 34, N-(4-{[(2-aminophenyl)amino)carbonyl]benzyl}-5-(3-furyl)-3-(4-hydroxyphenyl)-1H-pyrrole-2-carboxamide], the half-maximal inhibitory concentration (IC50) on Human HDAC1 is 86 nM; at Human HDAC8, > 5000 nM; on Human HDAC2, 349 nM; in data set [2] it was 1540 nM; at Human HDAC3/NcoR2 it was 770 nM; on Human HDAC6 it was 1260 nM.
As for `O=C(NO)c1ccc(CNC(=O)c2[nH]c(-c3ccccc3)cc2-c2ccc(F)cc2)cc1` [Example 29, 3-(4-fluorophenyl)-N-{4-[(hydroxyamino)carbonyl]benzyl}-5-phenyl-1H-pyrrole-2-carboxamide], the IC50 in data set [2] is 73 nM; in data set [1], 71 nM.
As for `O=C(NO)c1ccc(CNC(=O)c2[nH]c(-c3cccs3)cc2-c2ccc(F)cc2)cn1` [Example 32, 3-(4-fluorophenyl)-N-{2-[(hydroxyamino)carbonyl]-5-pyridyl-methyl}-5-(2-thienyl)-1H-pyrrole-2-carboxamide], in data set [2], the IC50 was determined as 390 nM.
With `O=C(NO)c1ccc(CNC(=O)c2[nH]c(-c3cccs3)cc2-c2ccc(F)cc2)nc1` [Example 11, 6-[({[3-(4-fluorophenyl)-5-(2-thienyl)-1H-pyrrol-2-yl]carbonyl}amino)methyl]-N-hydroxynicotinamide], the melting point lay in the range of 151 to 152 °C. Moreover, at Human HDAC1, the IC50 amounted to 744 nM. Also, the IC50 on Human HDAC8 is 181 nM. The IC50 on Human HDAC2 amounted to 2530 nM. In data set [2], the IC50 amounted to 68.3 nM. Also, on Human HDAC3/NcoR2, the IC50 was 754 nM.
Turning to `COc1ccc(-c2cc(-c3ccccc3)[nH]c2C(=O)NCc2ccc(C(=O)NO)cc2)cc1OC` [Example 41, N-{4-[(hydroxyamino)carbonyl]benzyl}-3-(3,4-dimethoxyphenyl)-5-phenyl-1H-pyrrole-2-carboxamide], in data set [1], the IC50 came to 119 nM.
For `COc1ccc(-c2cc(-c3ccccc3)[nH]c2C(=O)Nc2ccc(C(=O)NO)o2)cc1` [Example 16, N-{5-[(hydroxyamino)carbonyl]-2-furyl}-3-(4-methoxyphenyl)-5-phenyl-1H-pyrrole-2-carboxamide], the melting point lay in the range of 160 to 162 °C. Further, the IC50 in data set [1] is > 10000 nM.
Take `O=C(NO)c1ccc(CNC(=O)c2[nH]c(-c3ccccc3)cc2-c2ccc(Br)cc2)cc1` [Example 40, 3-(4-bromophenyl)-N-{4-[(hydroxyamino)carbonyl]benzyl}-5-phenyl-1H-pyrrole-2-carboxamide]: the IC50 in data set [1] turned out to be 99 nM.
As for `Nc1ccccc1NC(=O)c1ccc(CNC(=O)c2[nH]c(-c3ccc(O)cc3)cc2-c2ccsc2)cc1` [Example 33, N-(4-{[(2-aminophenyl)amino)carbonyl]benzyl}-5-(4-hydroxyphenyl)-3-(3-thienyl)-1H-pyrrole-2-carboxamide], the IC50 was 103 nM on Human HDAC1; > 5000 nM at Human HDAC8; 364 nM at Human HDAC2; 3270 nM in data set [2]; 732 nM at Human HDAC3/NcoR2; > 5000 nM at Human HDAC6.
In turn, `COc1ccc(-c2cc(-c3ccccc3)[nH]c2C(=O)Nc2cccc(CC(=O)NO)c2)cc1` [Example 18, N-{3-[2-(hydroxyamino)-2-oxoethyl]phenyl}-3-(4-methoxyphenyl)-5-phenyl-1H-pyrrole-2-carboxamide] displayed a melting point of 205 to 206 °C. For the same compound, the IC50 in data set [1] was > 10000 nM.
With `COc1ccc(-c2cc(-c3ccccc3)[nH]c2C(=O)NCCCCCC(=O)NO)cc1` [Kendine 91, N-[6-(hydroxyamino)-6-oxohexyl]-3-(4-methoxyphenyl)-5-phenyl-1H-pyrrole-2-carboxamide, reference compound], the IC50 came out at 508 nM on Human HDAC1; 146 nM on Human HDAC8; 1690 nM on Human HDAC2; 43 nM in data set [2]; 613 nM on Human HDAC3/NcoR2; 34.9 nM at Human HDAC6.
As for `O=C(NO)c1ccc(CNC(=O)c2[nH]c(-c3ccccc3)cc2-c2cccc(Br)c2)cc1` [Example 45, 3-(3-bromophenyl)-N-{4-[(hydroxyamino)carbonyl]benzyl}-5-phenyl-1H-pyrrole-2-carboxamide], the IC50 in data set [1] came to 115 nM.
As to `O=C(NO)c1ccc(CNC(=O)c2[nH]c(-c3ccccc3)cc2-c2ccc(F)cc2)o1` [Example 17, 3-(4-fluorophenyl)-N-({5-[(hydroxyamino)carbonyl]-2-furyl}methyl)-5-phenyl-1H-pyrrole-2-carboxamide], the melting point was in the range of 152 to 153 °C. For the same compound, the IC50 in data set [1] was 9790 nM.
In the case of `O=C(NO)c1ccc(CNC(=O)c2[nH]c(-c3ccccc3)cc2-c2ccc(C(F)(F)F)cc2)cc1` [Example 39, N-{4-[(hydroxyamino)carbonyl]benzyl}-5-phenyl-3-(4-trifluoromethylphenyl)-1H-pyrrole-2-carboxamide], the half-maximal inhibitory concentration (IC50) in data set [1] amounted to 170 nM.
On to `Cc1ccc(-c2cc(-c3ccc(F)cc3)c(C(=O)NCc3ccc(C(=O)NO)cc3)[nH]2)cc1` [Example 47, 3-(4-fluorophenyl)-N-{4-[(hydroxyamino)carbonyl]benzyl}-5-(4-methylphenyl)-1H-pyrrole-2-carboxamide], for which, in data set [1], the IC50 is 108 nM.
As for `COc1ccc(-c2cc(-c3ccccc3)[nH]c2C(=O)Nc2ccc(C(=O)NO)cc2)cc1` [Example 19, N-{4-[(hydroxyamino)carbonyl]phenyl}-3-(4-methoxyphenyl)-5-phenyl-1H-pyrrole-2-carboxamide], the melting point was in the range of 234 to 235 °C. Further, the IC50 in data set [1] was determined as 101 nM.
Take `Nc1ccccc1NC(=O)c1ccc(CNC(=O)c2[nH]c(-c3ccsc3)cc2-c2ccc(O)cc2)cc1` [Example 36, N-(4-{[(2-aminophenyl)amino)carbonyl]benzyl}-3-(4-hydroxyphenyl)-5-(3-thienyl)-1H-pyrrole-2-carboxamide]: the IC50 on Human HDAC1 is 222 nM; on Human HDAC8 it was > 5000 nM; at Human HDAC2, 752 nM; in data set [2], 4080 nM; at Human HDAC3/NcoR2, 2070 nM; on Human HDAC6, > 5000 nM.
Turning to `COc1ccc(-c2cc(-c3ccccc3)[nH]c2C(=O)NCc2ccc(C(=O)NCCS)cc2)cc1` [Example 23, 3-(4-methoxyphenyl)-5-phenyl-N-(4-{[(2-sulfanylethyl)amino]carbonyl}benzyl)-1H-pyrrole-2-carboxamide], the IC50 in data set [1] was > 10000 nM.
Regarding `COc1ccc(-c2cc(-c3ccccc3)[nH]c2C(=O)NCc2ccc(C(=O)NO)cc2)cc1` [Example 38, N-{4-[(hydroxyamino)carbonyl]benzyl}-3-(4-methoxyphenyl)-5-phenyl-1H-pyrrole-2-carboxamide], the half-inhibitory concentration (IC50) in data set [1] turned out to be 70 nM.
In the case of `O=C(NO)c1ccc(CNC(=O)c2[nH]c(-c3ccc(F)cc3)cc2-c2ccc(F)cc2)cc1` [Example 30, 3,5-bis-(4-fluorophenyl)-N-{4-[(hydroxyamino)carbonyl]benzyl}-1H-pyrrole-2-carboxamide], the IC50 in data set [2] came out at 90 nM; in data set [1], 82 nM.
